Assay results reported in US9944610B2, “Preparation and method for use in the treatment of respiratory diseases” (Universite Laval, priority 2013, dated 2018).

Columns and labels:
[1] = Particle size analysis (PSD), Malvern Mastersizer; type: physicochemical
Experimental: A 2 g sample of anhydrous crystalline ASM-024 was taken and fed through the Sturtevant Qualification Micronizer. The mill has a 2 inch chamber, and was operated at 80 psig grinding pressure and 90 psig feed pressure. Milled API was recovered from the exhaust filter sock and physically characterized.
Particle size analysis was performed using a Malvern Mastersizer with a Small Sample Presentation Unit. The dispersant used was ethyl acetate with 2 g of SPAN 85 per liter. Samples were prepared by sonicating 5 mg of sample in 2 ml of dispersant, the sample was then added dropwise to achieve 20% obscuration.
Magnesium stearate was blended with un-milled ASM-024 in two gram lots. Approximately one gram of ASM-024 was weighed into a 28 ml vial. The appropriate mass of magnesium stearate was then weighed on top of the API and the weight completed to two grams with ASM-024. The materials were blended using a Turbula T2F mixer at 101 rpm for ten minutes. The blended material was passed through the Sturtevant Qualification Micronizer and recovered from the filter sock.

LTD4-induced contraction = assay: Relaxant effect on LTD4-induced contraction
[2] = ASM-024 capsule stability study, NGI testing of fine particle mass (FPM); type: physicochemical; conditions: eight weeks at 40° C./75% RH
Experimental: (§1) For method development using the NGI method, size three HPMC capsules were hand filled with forty milligrams of micronized ASM-024. Three capsules were tested according to manufacturer's instructions using the following conditions: • Cup coating agent: 3% PEG400 with 0.1% F68 in acetone • Testing flow rate: 60 LPM • Testing volume: 4 L (4 second actuation) • Device: Miat Monodose Inhaler (standard resistance) • Sample diluent: 70% MeOH: 30% H2O (v/v) • Dilutions • Device—50 ml • Throat—50 ml • Pre-separator—100 ml • Stage 1—MOC—10 ml • Filter—50 ml
A two month study was performed at accelerated conditions with testing at two weeks, four weeks and eight weeks. Hand filled 40 mg capsules were packed in foil pouches with a 10 g desiccant pouch and heat sealed. Hand filled 40 mg capsules were also packed in foil pouches and heat sealed without a desiccant pouch. All heat seals were hand checked to ensure seal integrity. Pouches were placed on stability at 40° C./75% RH. NGI testing of the capsules stored without desiccant were conducted over the eight week study.

[3] = NGI aerosol testing, mass retained in device and capsule; type: physicochemical; conditions: 40 mg capsule fill weight, standard and high resistance Miat Monodose inhalers
Experimental: as §1
Aerosol performance and stability was assessed. Milled API was hand filled into size 3 HPMC capsules and size 3 gelatin capsules (40 mg capsule fill weight). NGI testing was performed in duplicate using standard resistance and high resistance Miat Monodose inhalers. […] The high resistance device has provided an increased FPM of ASM-024 from both HPMC and gelatin capsules.

[4] = PSD of ASM-024 prior to micronization
[5] = co-milled with 0.2 % w/w magnesium stearate
[6] = co-milled with 0.5 % w/w magnesium stearate
[7] = co-milled with 1.0 % w/w magnesium stearate
[8] = co-milled with 2.0 % w/w magnesium stearate
[9] = milled, 0.0 % magnesium stearate

`CC[N+]1(CC)CCCN(c2ccccc2)CC1` [ASM-024] showed a d10 [1, 4] of 13.92 μm, a d50 [1, 4] of 41.67 μm and a d90 [1, 4] of 91.89 μm. It also gave a d10 ([1]; after one pass in jet air mill) of 0.78 μm, a d50 ([1]; after one pass in jet air mill) of 2.10 μm and a d90 ([1]; after one pass in jet air mill) of 4.70 μm. The d10 [1, 5] was 0.89 µm, the d50 [1, 5] was 1.74 µm and the d90 [1, 5] was 3.33 µm. For the same compound, the d10 [1, 6] was 0.89 µm, the d50 [1, 6] was 1.86 µm and the d90 [1, 6] was 3.94 µm. For the same compound, the d10 [1, 7] was 0.9 µm, the d50 [1, 7] was 1.7 µm and the d90 [1, 7] was 3.17 µm. For the same compound, the d10 [1, 8] was 0.91 µm, the d50 [1, 8] was 1.69 µm and the d90 [1, 8] was 3.11 µm. It also gave a d10 [1, 9] of 0.97 µm, a d50 [1, 9] of 1.95 µm and a d90 [1, 9] of 3.8 µm. The “relaxant effect on LTD4-induced contraction” value (LTD4-induced contraction) was “no relaxant effect”, the “decrease in FPM” value ([2]; 40 mg capsules in foil pouches with 10 g desiccant pouch) was roughly 5.7% and the “decrease in FPM” value ([2]; 40 mg capsules in foil pouches without desiccant) was 10.9%. For the same compound, the “mass of ASM-024 retained in the device and capsule after NGI testing” value [3] was “less than 20 mg”.
